Reference: patent publication US20080311657A1, “Killing Human Lymphoma and Leukemia Cancer Cells and Tcr-Activated Normal Human Cells By Dopamine D1r Agonists” (priority 2005, published 2008)

How the values were obtained:
Format in all cases: cell-based
[1] = tested on: resting normal human T-cells; experiment: Number of living cells counted by flow cytometry (FACSort) after D1R agonist
Protocol: (§1) Afterwards, the microtiter plates were placed in an incubator (37° C., humidified incubator, 5% CO2) for 3 days. Then, the number of living cells was evaluated by flow cytometry (the cells were counted by FACsort for a fixed time length of 1 min, in which 100 microliter of each sample was tested).
(§2) FIGS. 31A and B are graphs showing that A 77636 hydrochloride kills much more TCR-activated (FIG. 31B) than resting normal (FIG. 31A) human T-cells. […] The cells were then transferred to the incubator for 72 hr incubation. At the end of the 72 hr incubation, the number of living cells in each well was evaluated by flow cytometry (the cells were counted by FACsort for a fixed time length of 1 min, in which 100 microliter of each sample was tested).
(§3) Cell viability was tested afterwards.

[2] = tested on: Human T-cell leukemia (Jurkat) cells; experiment: as above
Protocol: as §1, with “tested). Of note, A 77636 hydrochloride is an orally-active D1R agonist, according to the manufacturer (Tocris).” for “tested).”
as §1
The experiment was designed to test the effect of exposing the cells to the D1R agonist for 1 min, 15 min, 1 hr or 72 hr. Thus, 1 min, or 15 min or 1 hr after the addition of the D1R agonist, the corresponding cells were transferred into tubes, centrifuged (1000 rpm for 10 min); and the supernatant was removed. […] Thus, its medium was not replaced, and these cells and remained as such in the incubator for 72 hr. At the end of the 72 hr incubation, the number of living cells was evaluated by flow cytometry (the cells were counted by FACsort for a fixed time length of 1 min, in which 100 microliter of each sample was tested).
as §3
For this purpose, the Jurkat T-cell leukemia line, the HuT-78 human T-lymphoma (cutaneous “Sezary” T-lymphoma) line, and the K-562 human Chronic-Myeloid Leukemia (CML) and Daudi Human B-lymphoma (Burkitt's lymphoma) lines were seeded in tissue culture wells (0.5 million cells/0.5 ml/well).
Cell survival/death was evaluated 3 days later by counting the number of living cells, using flow cytometry.

[3] = tested on: TCR-activated normal human T-cells; experiment: as above; conditions: 10^−5 M, 72 hr
Protocol: as §2
Non-tissue culture treated 24-well plates (Falcon, Franklin Lakes, N.J.) were coated overnight at 4° C. with anti-CD3 and anti-CD28 monoclonal antibodies (mabs) (BD Pharmingen, San Jose, Calif.); ([…] in PBS). The wells were then washed with PBS, blocked for 1 hour at 37° C. (PBS/1% BSA), and washed again. The freshly purified normal human T-cells were resuspended in their respective fresh media and seeded in the anti-CD3/CD28 coated wells (1×10^6 per well), and the plates were incubated for 72 hours (37° C., humidified incubator, 5% CO2). Then, the cells and their media were collected from each well, transferred into 50 ml tubes, centrifuged (1200 rpm, 10 minutes) and both the TCR-activated cells and their culture media were collected and transferred into clean separate tubes.
as §3

[4] = tested on: Human Burkitt's B-cell lymphoma (Raji) cells; experiment: as above; conditions: 10^−3M-10^−6M, 3 days
Protocol: as §1, §3

[5] = tested on: Human Burkitt's B-lymphoma cells (Raji); experiment: Cell death by LDH release (CytoTox 96); conditions: 10^−4M
Protocol: Human Burkitt's B-lymphoma cells (Raji) were seeded in 96 well plates (0.5 ml per well of 0.5 million cells/ml) and A 77636 hydrochloride was added and diluted 1:00 into the wells, at a fixed starting concentration of 10^−2M, so that the final concentration tested was 10^−4M. The cells were then transferred to an incubator (37° C., humidified incubator, 5% CO2) for 1 min, 10 min, 30 min, 60 min or 120 min incubation.

With `Cl.NC[C@@H]1O[C@H](C23CC4CC(CC(C4)C2)C3)Cc2c1ccc(O)c2O` [A 77636 hydrochloride, (1R-cis)-1-(aminomethyl)-3,4-dihydro-3-tricyclo[3.3.1.13,7]dec-1-yl-[1H]-2-benzopyran-5,6-diol hydrochloride] the “Killing effect by number of living cells (FIGS. 25-27), in words” value ([1]; 10^−3M-10^−6M, 3 days) was “significantly milder killing effect”, the “% of cells killed” value ([1]; 10^−5 M, 72 hr) was 12% and the “Cell death by number of living cells (FIGS. 10-12), in words” value ([2]; 10^−3M-10^−6M, 3 days) was “induces marked cell death”. The “Killing, in words” value ([2]; 10^−4M, 1 min incubation then washed, living cells counted 3 days later) was “not sufficient to cause marked cell death”, the “Killing, in words” value ([2]; 10^−4M, 15 minutes then washed, living cells counted 3 days later) was “significant” and the “% of the cells killed (maximum)” value ([2]; 10^−4M, 1 hour of incubation then washed, living cells counted 3 days later) was 94%. The “Killing, in words” value ([2]; 10^−4M, 72 hour incubation) was “no further effect”, the “Speed of cell death by number of living cells (FIG. 30), in words” value ([2]; 10^−4M, exposure 1 min, 15 min, 1 hr or 72 hr) was “very rapid death” and the “% of cells killed” value [3] was 46%. For the same compound, the “Killing of TCR-activated relative to resting normal human T-cells” value [3] was 3.8 fold, the “Cell death by number of living cells (FIGS. 19-21), in words” value [4] was “induces marked cell death” and the “Exposure time at which extent of cell death reaches a plateau” value ([5]; LDH release) was 1 h. The “Elevation in the release of LDH” value ([5]; exposure for 1 minute) was “≈ 3 fold” and the “Speed of cell death by LDH release (FIG. 28), in words” value ([5]; 1, 10, 30, 60 or 120 min) was “very rapid death”.
